Reference: paper PMC7751403, “Development of 2-oindolin-3-ylidene-indole-3-carbohydrazide derivatives as novel apoptotic and anti-proliferative agents towards colorectal cancer cells” (Journal of Enzyme Inhibition and Medicinal Chemistry, 2020)
Read-outs that look alike come from different tables or passages of the source.

Tests used:
[1] = tested on: HT-29 colorectal cancer cell line; test: MTT cell viability assay, HT-29 colorectal cancer cells; format: cell-based, human
Protocol: (§1) HT29 and SW620 colorectal cancer cell lines and HFF-1 fibroblast (ATCC, Rockville, USA) were used. HT29 cells were cultured and maintained in Dulbecco’s Modified Eagle’s Medium (DMEM) (GIBCO, by Thermo Fischer Scientific, NY, USA) supplemented with 10% foetal bovine serum (FBS), 100 units/mL penicillin, and 100 µg streptomycin. SW620 and HFF-1 cells were cultured in Roswell Park Memorial Institute medium (RPMI-1640) (GIBCO, by Thermo scientific, NY, USA) supplemented with 10% FBS and 1% penicillin and streptomycin (Napolitano et al., 2015). All cultures were incubated at 37 °C and humidified atmosphere of 5% CO2.
(§2) The cytotoxicity effect of compounds on the colorectal cancer cell lines, HT29 and SW620 in addition to the normal human fibroblasts was measured by MTT (3–(4, 5-dimethylthiazol-2-yl)-2,5-diphenyltetrazolium bromide) (Sigma-Aldrich, St. Louis, MO, USA) as previously described. Briefly, cells were seeded in 96 well culture plates at 5000/well for HT29 and 10,000/well for SW620 for 24 h. Cells were then incubated with different compounds from WAG1 series (1–15) 24 h at 37 °C and humidified 5% CO2 incubator. Freshly prepared 10 µl of 3–(4,5-dimethylthiazol-2-yl)-2,5-diphenyltetrazolium bromide (MTT 5 mM) solution were added to the cells and further incubated for 2 h. Thereafter, 100 µl of dimethyl sulphoxide (DMSO) were added in each well and the crystals were dissolved through careful pipetting. In certain experiment, cells were treated different concentration of 5FU for 72 h. The absorbance of the product was measured at 540 nm using a Synergy™ 2 multi-mode microplate reader (Biotech, VA, USA). The experiments were performed in triplicate for each condition.

[2] = tested on: SW-620 colorectal cancer cell line; test: MTT cell viability assay, SW-620 colorectal cancer cells; format: cell-based, human
Protocol: as §1, §2

Bcl2 = test: Western blot of Bcl2 protein expression in SW-620 cells; format: cell-based, human; conditions: SW-620, two concentrations, 24 h, immunoblotting
Protocol: (§3) All cells were seeded in a 100 mm dish (1 × 10^6 cells per dish) in 5% CO2 at 37 °C in the appropriate culture medium. The cells with around 50% confluency were treated with compounds for 24 h. At the experiment day, cells were washed with 1x PBS, harvested and lysed in RIPA lysis buffer, combined with protease inhibitors, (Sigma-Aldrich, St. Louis, MO, USA) as described previously[39]). The total protein concentration was evaluated by the colorimetric Bradford protein assay (BIO-RAD inc, CA, USA) at 595 nm absorbance. Lysates were loaded in equal concentration and separated by sodium dodecyl sulfate-polyacrylamide gel electrophoresis (SDS-PAGE) and then transferred to a nitrocellulose membrane by semi-dry. Blocking of the membrane was done by 5% non-fat dried milk for one hour, incubated with the primary antibodies. The primary antibodies used were Bcl2 (cat. no. sc-7382), BclxL (cat. no. sc-8392) and β Actin (cat. no. sc-69879) from (Santa Cruz Biotechnology, Inc., Dallas, TX, USA). The secondary antibodies used were goat anti-mouse IgG-HRP (cat. no. sc-2005) and mouse anti-rabbit IgG-HRP (cat. no. sc-2357) from (Santa Cruz Biotechnology, Inc., Dallas, TX, USA). Detection was done with Luminol HRP chemiluminescence substrate (cat. no. sc-2048) from (Santa Cruz Biotechnology, Inc., Dallas, TX, USA) and then visualised by c-digit blot-scanner (LI-COR, Nebraska, USA).

SW-620 cells = test: Annexin V-FITC/PI apoptosis assay (flow cytometry); format: cell-based, human; conditions: 24 h
Protocol: Induction of apoptosis was measured by Dead Cell Apoptosis Kit with Annexin V FITC and PI, for flow cytometry (Thermofischer scientific, OR, USA) according to the manufacturer’s instruction. As described previously (39), cells were seeded in a 6-well plate (3 × 10^5 cells per well) and treated with the various compound for 24 h. Both floating and adherent cells were harvested, pooled together, and incubated with Annexin V-FITC and PI for 15 min on ice in dark. The cells were analysed by BD FACSCalibur™ cell analyser (BD Biosciences, CA, USA) at an emission of 530 nm (FL1 channel) and >575 nm (FL3).

BclxL = test: Western blot of BclxL protein expression in SW-620 cells; format: cell-based, human; conditions: SW-620, two concentrations, 24 h, immunoblotting
Protocol: as §3

[3] = tested on: normal human skin fibroblast (HFF-1); test: MTT cell viability assay, normal fibroblast HFF-1; format: cell-based; conditions: 24 h
Protocol: as §1
The cytotoxicity effect of compounds on the colorectal cancer cell lines, HT29 and SW620 in addition to the normal human fibroblasts was measured by MTT (3–(4, 5-dimethylthiazol-2-yl)-2,5-diphenyltetrazolium bromide) (Sigma-Aldrich, St. Louis, MO, USA) as previously described. Briefly, cells were seeded in 96 well culture plates at 5000/well for HT29 and 10,000/well for SW620 for 24 h. Cells were then incubated with different compounds from WAG1 series (1–15) 24 h at 37 °C and humidified 5% CO2 incubator. […] The absorbance of the product was measured at 540 nm using a Synergy™ 2 multi-mode microplate reader (Biotech, VA, USA). […]

[4] = Homo sapiens, HT-29, MTT, compounds 24 h (5FU 72 h), three separate experiments, read-out: IC50 (nM) HT-29
[5] = Homo sapiens, SW-620, MTT, compounds 24 h (5FU 72 h), three separate experiments, read-out: IC50 (nM) SW-620
[6] = MTT, compounds 24 h (5FU 72 h), three separate experiments, read-out: IC50 (nM) HT-29
[7] = MTT, compounds 24 h (5FU 72 h), three separate experiments, read-out: IC50 (nM) SW-620

| SMILES | IC50 [1, 4] | IC50 [2, 5] | melting point | further results |
| --- | --- | --- | --- | --- |
| O=c1[nH]cc(F)c(=O)[nH]1 [Compound 5-FU, 5-Fluorouracil, reference compound] | 4600 nM | 1500 nM |  | IC50 ([1]; Homo sapiens, HT-29, 72 h, MTT, 5FU 72 h, read-out: IC50 against HT-29): 1500 nM; IC50 ([2]; Homo sapiens, SW-620, 72 h, MTT, 5FU 72 h, read-out: IC50 against SW-620): 4600 nM |
| O=C1Nc2ccccc2C1=NNC(=O)c1c[nH]c2ccccc12 [Compound 7a, N'-(2-Oxoindolin-3-ylidene)-1H-indole-3-carbohydrazide] | 408 nM | 145 nM | 259 to 261 °C |  |
| O=C1Nc2ccc(F)cc2C1=NNC(=O)c1c[nH]c2ccccc12 [Compound 7b, N'-(5-Fluoro-2-oxoindolin-3-ylidene)-1H-indole-3-carbohydrazide] | 611 nM | 175 nM | > 300 °C |  |
| O=C1Nc2ccc(Cl)cc2C1=NNC(=O)c1c[nH]c2ccccc12 [Compound 7c, N'-(5-Chloro-2-oxoindolin-3-ylidene)-1H-indole-3-carbohydrazide] | 188 nM | 206 nM |  | IC50 [1, 6]: 206 nM; Bcl2 protein expression (Bcl2): dose-dependent inhibition; fold total apoptosis increase compared to the control (SW-620 cells; SW-620, 250 nM): approximately 5.2 fold; fold total apoptosis increase compared to the control (SW-620 cells; SW-620, 500 nM): ~10.66 fold; BclxL protein expression (BclxL): dose-dependent inhibition; effect on cell viability of HFF-1 [3]: no/or little effect; IC50 [2, 7]: 188 nM |
| O=C1Nc2ccc(Br)cc2C1=NNC(=O)c1c[nH]c2ccccc12 [Compound 7d, N'-(5-Bromo-2-oxoindolin-3-ylidene)-1H-indole-3-carbohydrazide] | 320 nM | 133 nM | 247 to 249 °C |  |
| Cc1ccc2c(c1)C(=NNC(=O)c1c[nH]c3ccccc13)C(=O)N2 [Compound 7e, N'-(5-Methyl-2-oxoindolin-3-ylidene)-1H-indole-3-carbohydrazide] | 335 nM | 253 nM | 201 to 203 °C |  |
| COc1ccc2c(c1)C(=NNC(=O)c1c[nH]c3ccccc13)C(=O)N2 [Compound 7f, N'-(5-Methoxy-2-oxoindolin-3-ylidene)-1H-indole-3-carbohydrazide] | 142 nM | 37 nM | 197 to 199 °C |  |
| O=C1Nc2ccc(OC(F)(F)F)cc2C1=NNC(=O)c1c[nH]c2ccccc12 [Compound 7g, N'-(2-Oxo-5-(trifluoromethoxy)indolin-3-ylidene)-1H-indole-3-carbohydrazide] | 279 nM | 299 nM |  | IC50 [1, 6]: 299 nM; Bcl2 protein expression (Bcl2): inhibit; fold total apoptosis increase compared to the control (SW-620 cells; SW-620, 250 nM): approximately 7.3 fold; fold total apoptosis increase compared to the control (SW-620 cells; SW-620, 500 nM): ~9.6 fold; BclxL protein expression (BclxL): inhibit; effect on cell viability of HFF-1 [3]: no/or little effect; IC50 [2, 7]: 279 nM |
| O=C1Nc2ccc([N+](=O)[O-])cc2C1=NNC(=O)c1c[nH]c2ccccc12 [Compound 7h, N'-(5-Nitro-2-oxoindolin-3-ylidene)-1H-indole-3-carbohydrazide] | 132 nM | 190 nM | > 300 °C | fold more active than 5FU against HT-29 ([1]; ratio of IC50 values versus 5FU): approximately 35 fold |
| O=C1Nc2c(F)cccc2C1=NNC(=O)c1c[nH]c2ccccc12 [Compound 7i, N'-(7-Fluoro-2-oxoindolin-3-ylidene)-1H-indole-3-carbohydrazide] | 140 nM | 468 nM | > 300 °C |  |
| Cc1cc(C)c2c(c1)C(=NNC(=O)c1c[nH]c3ccccc13)C(=O)N2 [Compound 7j, N'-(5,7-Dimethyl-2-oxoindolin-3-ylidene)-1H-indole-3-carbohydrazide] | 200 nM | 187 nM | > 300 °C |  |
| CN1C(=O)C(=NNC(=O)c2c[nH]c3ccccc23)c2ccccc21 [Compound 9a, N'-(1-Methyl-2-oxoindolin-3-ylidene)-1H-indole-3-carbohydrazide] | 176 nM | 260 nM | 273 to 275 °C |  |
| CCCN1C(=O)C(=NNC(=O)c2c[nH]c3ccccc23)c2ccccc21 [Compound 9b, N'-(2-Oxo-1-propylindolin-3-ylidene)-1H-indole-3-carbohydrazide] | 525 nM | 105 nM | 248 to 250 °C |  |
| O=C(NN=C1C(=O)N(Cc2ccccc2)c2ccccc21)c1c[nH]c2ccccc12 [Compound 9c, N'-(1-Benzyl-2-oxoindolin-3-ylidene)-1H-indole-3-carbohydrazide] | 405 nM | 283 nM | 274 to 276 °C |  |
| CCCN1C(=O)C(=NNC(=O)c2c[nH]c3ccccc23)c2cc(Cl)ccc21 [Compound 9d, N'-(5-Chloro-2-oxo-1-propylindolin-3-ylidene)-1H-indole-3-carbohydrazide] | 166 nM | 290 nM | 262 to 263 °C |  |
| CCCN1C(=O)C(=NNC(=O)c2c[nH]c3ccccc23)c2cc(Br)ccc21 [Compound 9e, N'-(5-Bromo-2-oxo-1-propylindolin-3-ylidene)-1H-indole-3-carbohydrazide] | 290 nM | 414 nM | 255 to 256 °C |  |
